Measurements as given in patent publication US7943770B2, “Fused quinoline derivative and use thereof” (Takeda Pharmaceutical Company Limited, priority 2004, dated 2011).

biological target: T1, hNK2 receptor (Homo sapiens, UniProt P21452); assay: Radio-ligand ([125I]-NKA) receptor binding inhibitory activity using membrane fraction of hNK2 receptor-expressing CHO cell; conditions: membrane fraction of hNK2 receptor-expressing CHO cells, 25° C., 30 min
T1 construct: host or cells: CHO cells
T1 sequence (P21452 1-398): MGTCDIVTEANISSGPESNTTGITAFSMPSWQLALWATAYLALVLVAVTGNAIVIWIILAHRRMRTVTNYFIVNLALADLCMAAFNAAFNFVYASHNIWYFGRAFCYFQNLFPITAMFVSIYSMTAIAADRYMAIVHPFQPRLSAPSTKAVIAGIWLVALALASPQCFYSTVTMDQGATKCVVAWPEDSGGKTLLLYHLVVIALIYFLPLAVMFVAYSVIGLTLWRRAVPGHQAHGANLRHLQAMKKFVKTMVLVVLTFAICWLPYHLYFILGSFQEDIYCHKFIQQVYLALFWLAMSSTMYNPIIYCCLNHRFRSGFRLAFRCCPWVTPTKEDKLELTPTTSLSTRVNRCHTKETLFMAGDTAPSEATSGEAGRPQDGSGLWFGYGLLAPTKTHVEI
Method: hNK2 receptor-expressing CHO cells (produced by EUROSCREEN) were cultured in HAM-F12 medium containing 400 μg/ml Geneticin, 100 U/mL penicillin, 100 μg/mL streptomycin and 10% inactivated serum. The medium was removed and adhered cells were washed with PBS, and PBS containing 5 mM EDTA was added to detach the cells from the flask. The cells were recovered by centrifugation, suspended in suspending buffer A (15 mM Tris-HCl (pH 7.5), 2 mM MgCl2, 0.3 mM EDTA, 1 mM EGTA), disrupted by POLYTRON homogenizer (manufactured by KINEMATICA) and centrifuged at 800×g for 10 min. The supernatant was recovered and ultracentrifuged at 100000×g for 25 min. The precipitated fraction was suspended in suspending buffer B (7.5 mM Tris-HCl (pH 7.5), 12.5 mM MgCl2, 0.3 mM EDTA, 1 mM, […], 250 mM Sucrose) and cryopreserved (at −80° C.) as a receptor specimen.
An assay buffer (50 μl, 50 mM Tris-HCl (pH 7.4), 0.02% bovine serum albumin, 2 μg/mL chymostatin, 40 μg/mL bacitracin, 40 μg/mL APMSF, 3 mM MnCl2) was added to a 96 well microassay plate. Thereto was added a 20 μg/mL membrane specimen suspended in the assay buffer (50 μL). An assay buffer (50 μL) containing 2% dimethyl sulfoxide was added to examine the total binding, 4 unlabeled NKA (produced by Peptide Institute, Inc.) solution (50 μL) diluted with an assay buffer containing 2% dimethyl sulfoxide was added to examine non-specific binding, and a test compound diluted with an assay buffer (50 containing 2% dimethyl sulfoxide) was added to examine the binding inhibitory activity of the test compound. Furthermore, […] [^125I]-NKA (produced by Amersham Biosciences) solution (50 μL) was added to each well.
After reaction at 25° C. for 30 min., the reaction was stopped by rapid filtration on a unifilter plate (GF/C) (manufactured by PerkinElmer) using a cell harvester (manufactured by PerkinElmer) and the cells were washed 5 times with 50 mM Tris-HCl (pH 7.4) buffer containing 0.02% bovine serum albumin (250 μL). The GF/C filter plate was dried and 20 μl, of MicroScinti-O (manufactured by PerkinElmer) was added and the radioactivity was measured in Topcount (manufactured by PerkinElmer). The GF/C filter plate, which had been immersed in 0.3% polyethyleneimine for one day, was used. Specific binding is shown by the value obtained by subtracting non-specific binding from the total binding. The binding inhibitory activity of the test compound is shown by the ratio of the value obtained by subtracting the measured value associated with the addition of the test compound from the total binding, to the value of the specific binding.

Row | Structure (SMILES) | IC50 [nM]
1 | COc1ccc(C(=O)N[C@@H]2CCCC[C@@H]2C(=O)N2CC[C@@H]3[C@H](c4ccccc4)Nc4ccccc4[C@@H]32)cc1 [Example 90, 4-Methoxy-N-((1R,2S)-2-{[(3aR,4R,9bR)-4-phenyl-2,3,3a,4,5,9b-hexahydro-1H-pyrrolo[3,2-c]quinolin-1-yl]carbonyl}cyclohexyl)benzamide] | < 1
2 | O=C(N[C@@H]1CCCC[C@@H]1C(=O)N1CC[C@@H]2[C@H](c3ccccc3)Nc3ccccc3[C@@H]21)c1ccncc1 [Example 91, N-((1R,2S)-2-{[(3aR,4R,9bR)-4-Phenyl-2,3,3a,4,5,9b-hexahydro-1H-pyrrolo[3,2-c]quinolin-1-yl]carbonyl}cyclohexyl)isonicotinamide] | < 10
3 | O=C(N[C@@H]1CCCC[C@@H]1C(=O)N1CC[C@@H]2[C@H](c3ccccc3)Nc3ccccc3[C@@H]21)c1ccc(F)cc1 [Example 92, 4-Fluoro-N-((1R,2S)-2-{[(3aR,4R,9bR)-4-phenyl-2,3,3a,4,5,9b-hexahydro-1H-pyrrolo[3,2-c]quinolin-1-yl]carbonyl}cyclohexyl)benzamide] | < 10
4 | CCCCCC(=O)N[C@@H]1CCCC[C@@H]1C(=O)N1CC[C@@H]2[C@H](c3ccccc3)Nc3ccccc3[C@@H]21 [Example 93, N-((1R,2S)-2-{[(3aR,4R,9bR)-4-Phenyl-2,3,3a,4,5,9b-hexahydro-1H-pyrrolo[3,2-c]quinolin-1-yl]carbonyl}cyclohexyl)hexanamide] | < 10
5 | COC(=O)c1ccc(C(=O)N[C@@H]2CCCC[C@@H]2C(=O)N2CC[C@@H]3[C@H](c4ccccc4)Nc4ccccc4[C@@H]32)cc1 [Example 100, Methyl 4-{[((1R,2S)-2-{[(3aR,4R,9bR)-4-phenyl-2,3,3a,4,5,9b-hexahydro-1H-pyrrolo[3,2-c]quinolin-1-yl]carbonyl}cyclohexyl)amino]carbonyl}benzoate] | < 10
6 | O=C(/C=C/c1ccccc1)N[C@@H]1CCCC[C@@H]1C(=O)N1CC[C@@H]2[C@H](c3ccccc3)Nc3ccccc3[C@@H]21 [Example 101, (2E)-3-Phenyl-N-((1R,2S)-2-{[(3aR,4R,9bR)-4-phenyl-2,3,3a,4,5,9b-hexahydro-1H-pyrrolo[3,2-c]quinolin-1-yl]carbonyl}cyclohexyl)acrylamide] | < 1
7 | N#Cc1ccc(C(=O)N[C@@H]2CCCC[C@@H]2C(=O)N2CC[C@@H]3[C@H](c4ccccc4)Nc4ccccc4[C@@H]32)cc1 [Example 102, 4-Cyano-N-((1R,2S)-2-([(3aR,4R,9bR)-4-phenyl-2,3,3a,4,5,9b-hexahydro-1H-pyrrolo[3,2-c]quinolin-1-yl]carbonyl)cyclohexyl)benzamide] | < 10
8 | O=C(CCc1ccccc1)N[C@@H]1CCCC[C@@H]1C(=O)N1CC[C@@H]2[C@H](c3ccccc3)Nc3ccccc3[C@@H]21 [Example 103, 3-Phenyl-N-((1R,2S)-2-{[(3aR,4R,9bR)-4-phenyl-2,3,3a,4,5,9b-hexahydro-1H-pyrrolo[3,2-c]quinolin-1-yl]carbonyl}cyclohexyl)propanamide] | < 1
9 | COc1ccc(C(=O)N[C@@H]2CCCC[C@@H]2C(=O)N2CC[C@@H]3[C@H](c4ccccc4)Nc4ccccc4[C@@H]32)cc1OC [Example 104, 3,4-Dimethoxy-N-((1R,2S)-2-{[(3aR,4R,9bR)-4-phenyl-2,3,3a,4,5,9b-hexahydro-1H-pyrrolo[3,2-c]quinolin-1-yl]carbonyl}cyclohexyl)benzamide] | < 1
10 | COc1ccc(/C=C/C(=O)N[C@@H]2CCCC[C@@H]2C(=O)N2CC[C@@H]3[C@H](c4ccccc4)Nc4ccccc4[C@@H]32)cc1 [Example 105, (2E)-3-(4-Methoxyphenyl)-N-((1R,2S)-2-{[(3aR,4R,9bR)-4-phenyl-2,3,3a,4,5,9b-hexahydro-1H-pyrrolo[3,2-c]quinolin-1-yl]carbonyl}cyclohexyl)acrylamide] | < 1
11 | O=C(/C=C/c1ccc(C(F)(F)F)cc1)N[C@@H]1CCCC[C@@H]1C(=O)N1CC[C@@H]2[C@H](c3ccccc3)Nc3ccccc3[C@@H]21 [Example 106, (2E)-N-((1R,2S)-2-{[(3aR,4R,9bR)-4-Phenyl-2,3,3a,4,5,9b-hexahydro-1H-pyrrolo[3,2-c]quinolin-1-yl]carbonyl}cyclohexyl)-3-[4-(trifluoromethyl)phenyl]acrylamide] | < 10
12 | O=C(N[C@@H]1CCCC[C@@H]1C(=O)N1CC[C@@H]2[C@H](c3ccccc3)Nc3ccccc3[C@@H]21)c1ccc2ccccc2c1 [Example 107, N-((1R,2S)-2-{[(3aR,4R,9bR)-4-Phenyl-2,3,3a,4,5,9b-hexahydro-1H-pyrrolo[3,2-c]quinolin-1-yl]carbonyl}cyclohexyl)-2-naphthamide] | < 1
13 | CCOC(=O)CCC(=O)N[C@@H]1CCCC[C@@H]1C(=O)N1CC[C@@H]2[C@H](c3ccccc3)Nc3ccccc3[C@@H]21 [Example 108] | < 10
14 | O=C(CCCCCBr)N[C@@H]1CCCC[C@@H]1C(=O)N1CC[C@@H]2[C@H](c3ccccc3)Nc3ccccc3[C@@H]21 [Example 109, 6-Bromo-N-((1R,2S)-2-{[(3aR,4R,9bR)-4-phenyl-2,3,3a,4,5,9b-hexahydro-1H-pyrrolo[3,2-c]quinolin-1-yl]carbonyl}cyclohexyl)hexanamide] | < 10

Second part, the molecule after the results:

Row | IC50 [nM] | Structure (SMILES)
15 | < 10 | O=C(N[C@@H]1CCCC[C@@H]1C(=O)N1CC[C@@H]2[C@H](c3ccccc3)Nc3ccccc3[C@@H]21)c1cccs1 [Example 89, N-((1R,2S)-2-{[(3aR,4R,9bR)-4-Phenyl-2,3,3a,4,5,9b-hexahydro-1H-pyrrolo[3,2-c]quinolin-1-yl]carbonyl}cyclohexyl)thiophene-2-carboxamide]
16 | < 10 | COc1ccccc1C(=O)N[C@@H]1CCCC[C@@H]1C(=O)N1CC[C@@H]2[C@H](c3ccccc3)Nc3ccccc3[C@@H]21 [Example 94, 2-Methoxy-N-((1R,2S)-2-{[(3aR,4R,9bR)-4-phenyl-2,3,3a,4,5,9b-hexahydro-1H-pyrrolo[3,2-c]quinolin-1-yl]carbonyl}cyclohexyl)benzamide]
17 | < 10 | COc1cccc(C(=O)N[C@@H]2CCCC[C@@H]2C(=O)N2CC[C@@H]3[C@H](c4ccccc4)Nc4ccccc4[C@@H]32)c1 [Example 95, 3-Methoxy-N-((1R,2S)-2-{[(3aR,4R,9bR)-4-phenyl-2,3,3a,4,5,9b-hexahydro-1H-pyrrolo[3,2-c]quinolin-1-yl]carbonyl}cyclohexyl)benzamide]
18 | < 10 | O=C(N[C@@H]1CCCC[C@@H]1C(=O)N1CC[C@@H]2[C@H](c3ccccc3)Nc3ccccc3[C@@H]21)c1cccc(F)c1 [Example 96, 3-Fluoro-N-((1R,2S)-2-{[(3aR,4R,9bR)-4-phenyl-2,3,3a,4,5,9b-hexahydro-1H-pyrrolo[3,2-c]quinolin-1-yl]carbonyl}cyclohexyl)benzamide]
19 | < 10 | Cc1ccccc1C(=O)N[C@@H]1CCCC[C@@H]1C(=O)N1CC[C@@H]2[C@H](c3ccccc3)Nc3ccccc3[C@@H]21 [Example 97, 2-Methyl-N-((1R,2S)-2-{[(3aR,4R,9bR)-4-phenyl-2,3,3a,4,5,9b-hexahydro-1H-pyrrolo[3,2-c]quinolin-1-yl]carbonyl}cyclohexyl)benzamide]
20 | < 1 | Cc1cccc(C(=O)N[C@@H]2CCCC[C@@H]2C(=O)N2CC[C@@H]3[C@H](c4ccccc4)Nc4ccccc4[C@@H]32)c1 [Example 98, 3-Methyl-N-((1R,2S)-2-{[(3aR,4R,9bR)-4-phenyl-2,3,3a,4,5,9b-hexahydro-1H-pyrrolo[3,2-c]quinolin-1-yl]carbonyl}cyclohexyl)benzamide]
21 | < 10 | Cc1ccc(C(=O)N[C@@H]2CCCC[C@@H]2C(=O)N2CC[C@@H]3[C@H](c4ccccc4)Nc4ccccc4[C@@H]32)cc1 [Example 99, 4-Methyl-N-((1R,2S)-2-{[(3aR,4R,9bR)-4-phenyl-2,3,3a,4,5,9b-hexahydro-1H-pyrrolo[3,2-c]quinolin-1-yl]carbonyl}cyclohexyl)benzamide]
